Entries after “also recorded” stand apart in the source; their conditions may differ. Read-outs that look alike come from different tables or passages of the source.
Target: T1, telomerase (Homo sapiens, UniProt O14746)
T1 construct: placing cells, tissues, or preferably a cellular extract or other preparation containing telomerase in contact with; endogenous in cells
Experiment: telomerase inhibition, IC50 (Table 1)
Format: biochemical
Excerpt: One method used to identify compounds of the invention that inhibit telomerase activity involves placing cells, tissues, or preferably a cellular extract or other preparation containing telomerase in contact with several known concentrations of a test compound in a buffer compatible with telomerase activity. […] Other methods for determining the inhibitory concentration of a compound of the invention against telomerase can be employed as will be apparent to those of skill in the art based on the disclosure herein.
With the above-described methods, IC50 values for several of the compounds of the present invention were determined. The values reported in Table 1 below are only approximate values; more exact IC50 values can be obtained by repetitive testing.

[1] = Table 1, approximate values only, read-out: IC50
[2] = summary of Table 1, approximate IC50 values, read-out: IC50 (bound stated in text)

T1 sequence (O14746 whole entry): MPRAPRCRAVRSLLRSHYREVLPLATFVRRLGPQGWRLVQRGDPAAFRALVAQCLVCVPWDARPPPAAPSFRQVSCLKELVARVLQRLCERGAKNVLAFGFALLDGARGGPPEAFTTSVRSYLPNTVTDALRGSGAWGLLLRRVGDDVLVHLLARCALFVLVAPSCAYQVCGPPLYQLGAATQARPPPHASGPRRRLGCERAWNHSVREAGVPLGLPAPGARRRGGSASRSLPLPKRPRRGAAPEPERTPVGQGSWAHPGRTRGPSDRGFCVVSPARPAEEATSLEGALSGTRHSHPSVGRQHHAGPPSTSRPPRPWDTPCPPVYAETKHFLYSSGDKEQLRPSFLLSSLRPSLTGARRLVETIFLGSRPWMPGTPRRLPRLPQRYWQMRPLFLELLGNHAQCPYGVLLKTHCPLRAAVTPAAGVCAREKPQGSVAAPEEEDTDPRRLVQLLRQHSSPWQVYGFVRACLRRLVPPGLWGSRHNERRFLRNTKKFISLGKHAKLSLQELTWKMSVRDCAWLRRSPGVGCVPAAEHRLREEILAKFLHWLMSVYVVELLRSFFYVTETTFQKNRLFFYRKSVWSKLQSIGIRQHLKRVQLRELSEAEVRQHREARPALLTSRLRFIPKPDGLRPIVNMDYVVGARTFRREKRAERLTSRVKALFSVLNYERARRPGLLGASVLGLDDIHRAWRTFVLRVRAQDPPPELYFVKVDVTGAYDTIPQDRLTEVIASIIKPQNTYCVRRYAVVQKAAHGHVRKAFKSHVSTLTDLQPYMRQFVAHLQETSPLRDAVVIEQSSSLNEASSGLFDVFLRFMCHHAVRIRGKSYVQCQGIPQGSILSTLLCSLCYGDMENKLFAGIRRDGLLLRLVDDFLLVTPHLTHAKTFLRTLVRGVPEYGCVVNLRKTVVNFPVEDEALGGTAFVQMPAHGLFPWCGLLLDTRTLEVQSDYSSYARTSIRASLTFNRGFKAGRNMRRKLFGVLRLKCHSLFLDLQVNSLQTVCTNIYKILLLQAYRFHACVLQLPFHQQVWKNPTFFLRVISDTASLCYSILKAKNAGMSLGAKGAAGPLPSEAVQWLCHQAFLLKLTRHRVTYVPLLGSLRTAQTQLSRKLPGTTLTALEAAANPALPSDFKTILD
T1 sequence (O60832 whole entry partner): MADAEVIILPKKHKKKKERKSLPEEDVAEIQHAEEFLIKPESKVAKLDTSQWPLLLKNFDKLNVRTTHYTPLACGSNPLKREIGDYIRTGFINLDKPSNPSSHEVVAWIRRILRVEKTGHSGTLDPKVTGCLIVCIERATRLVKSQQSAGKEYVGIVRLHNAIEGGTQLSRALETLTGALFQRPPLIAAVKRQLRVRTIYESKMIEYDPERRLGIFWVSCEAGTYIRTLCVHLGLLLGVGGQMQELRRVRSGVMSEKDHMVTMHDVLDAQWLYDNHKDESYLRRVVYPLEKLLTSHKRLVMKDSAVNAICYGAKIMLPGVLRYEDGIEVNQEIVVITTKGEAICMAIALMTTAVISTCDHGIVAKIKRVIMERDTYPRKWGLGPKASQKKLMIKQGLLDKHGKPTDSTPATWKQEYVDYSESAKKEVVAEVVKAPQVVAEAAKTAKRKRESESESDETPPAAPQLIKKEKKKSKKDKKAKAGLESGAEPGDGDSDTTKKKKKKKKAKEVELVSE
T1 sequence (Q9NPE3 whole entry partner): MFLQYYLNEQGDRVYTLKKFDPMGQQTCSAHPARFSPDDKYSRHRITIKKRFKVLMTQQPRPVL
T1 sequence (Q9NX24 whole entry partner): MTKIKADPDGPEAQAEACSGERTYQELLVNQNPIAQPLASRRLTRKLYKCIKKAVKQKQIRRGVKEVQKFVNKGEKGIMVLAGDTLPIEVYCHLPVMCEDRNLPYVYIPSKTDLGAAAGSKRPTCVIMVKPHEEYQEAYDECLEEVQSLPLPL
T1 sequence (Q9NY12 whole entry partner): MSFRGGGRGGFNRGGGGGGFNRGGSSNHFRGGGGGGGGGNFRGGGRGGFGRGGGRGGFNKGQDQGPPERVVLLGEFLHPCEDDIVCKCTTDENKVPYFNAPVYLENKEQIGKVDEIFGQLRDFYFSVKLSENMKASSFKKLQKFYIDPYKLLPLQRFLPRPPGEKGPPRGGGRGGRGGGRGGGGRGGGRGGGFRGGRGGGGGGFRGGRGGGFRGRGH

Row | SMILES | IC50 [1] [µM] | anti-telomerase activity (in words) | IC50 [2] [µM]
1 | Nc1c(C(=O)c2ccc(Cl)c(Cl)c2)oc2nc(C=O)ccc12 [Compound XIV] | 31 | – | –
2 | Nc1c(C(=O)c2ccc(Cl)c(Cl)c2)sc2nc(C=NNc3ccc(Cl)cc3)ccc12 [Compound XII] | 21 | good anti-telomerase activity; also recorded: strong telomerase inhibitors | < 30
3 | Nc1c(C(=O)c2ccc(Cl)c(Cl)c2)sc2nc(C=O)ccc12 [Compound VIII] | 28 | particularly good anti-telomerase activity; also recorded: strong telomerase inhibitors | < 30
4 | Nc1c(C(=O)c2ccc(Br)cc2)sc2nc(C=O)ccc12 [Compound VII] | 48 | particularly good anti-telomerase activity | –
5 | CC(C)(C)c1ccc(-c2noc(-c3sc4nc(C=O)ccc4c3N)n2)cc1 [Compound X] | 42 | – | –
6 | Nc1c(C(=O)c2ccc(Cl)cc2Cl)sc2nc(C=NC3C4CC5CC(C4)CC3C5)ccc12 (centres unmarked) [Compound IV] | 26 | – | –
7 | Cc1cc(N=Cc2ccc3c(N)c(-c4ccc(Cl)c(Cl)c4)oc3n2)n[nH]1 [Compound XV] | 49 | good anti-telomerase activity | –
8 | Nc1c(C(=O)c2ccc(Cl)cc2Cl)sc2nc(C=O)ccc12 [Compound VI] | 29 | particularly good anti-telomerase activity; also recorded: strong telomerase inhibitors | < 30
9 | Nc1c(C(=O)c2ccc(Cl)c(Cl)c2)sc2nc(C=NNc3ccccc3)ccc12 [Compound XI] | 42 | good anti-telomerase activity | –
10 | Nc1c(C(=O)c2ccc(Cl)c(Cl)c2)sc2nc(C=NC3C4CC5CC(C4)CC3C5)ccc12 (centres unmarked) [Compound V] | 30 | strong telomerase inhibitors | < 30
11 | Cc1ccc(NN=Cc2ccc3c(N)c(C(=O)c4ccc(Br)cc4)sc3n2)cc1 [Compound XIII] | 18 | good anti-telomerase activity | –
12 | Nc1c(C(=O)c2ccc(Br)cc2)sc2nc(C=NC3C4CC5CC(C4)CC3C5)ccc12 (centres unmarked) [Compound III] | 4 | strong telomerase inhibitors | < 30
13 | Nc1c(-c2ncc(C(F)(F)F)cc2Cl)sc2nc(C=O)ccc12 [Compound IX] | 24 | strong telomerase inhibitors | < 30
